In article PMC8708666, “Screening of Self-Assembling of Collagen IV Fragments into Stable Structures Potentially Useful in Regenerative Medicine” (International Journal of Molecular Sciences, 2021):

Legend:
[1] = Microscopic examination of peptide aggregates stained with Congo Red; type: physicochemical; settings: phosphate buffer pH 7.2, 37.5 °C, 7 days
Method: In addition to CD studies, microscopic studies of peptides 1–33 and 2.1–2.4 stained with Congo Red were also performed. This method of visualization of peptide aggregates is a typical method of studying β-sheet structures in amyloid-type fibers.
In order to initiate aggregation, peptides were dissolved in a phosphate buffer solution of pH 7.2 and a concentration of 250 μM (approx. […] of peptide per 1 mL of solution) and incubated at 37.5 °C for 7 days.
Congo Red solution with a concentration of […] was prepared by dissolving the dye (Sigma-Aldrich) (17.42 mg; 0.025 mmol) in phosphate buffer (pH = 7.2) (10 mL) with the following composition: 100 mM NaH2PO4/Na2HPO4, 137 mM NaCl and 10% EtOH. Ethyl alcohol was added to the buffer to counteract the formation of dye micelles. A sample for microscopic analysis (peptide solution) was centrifuged at 12,000–14,000 rpm to precipitate. In the next step, the solution was decanted and the residue was washed three times with water to remove excess dye. Then, a suspension of the peptide in water was applied to a microscope slide. The samples were dried in a stream of air at room temperature and analyzed under polarized light.
The obtained structures were analyzed using a Delta Optical Genetic Pro (Warsaw, Poland) light microscope.

[2] = CD study of self-organization into structures mimicking the collagen triple helix; type: physicochemical; parameters: key to Ability to Mimic the Structure of the Collagen Helix: +++: peptides that were able to mimic the spatial structure of collagen at 4 °C, 20 °C and 40 °C; +: a fragment mimicking the spatial structure of collagen only at 4 °C; fragments that do not have the ability to aggregate into stable three-dimensional structures; settings: CD at 4 °C, 20 °C and 40 °C after 24 h incubation; for ability to self-organize into structures mimicking the triple helix (CD): water, 0.1 mg/mL
Description: The next stage of the research was to check whether peptides 1–33 and 2.1–2.4 have the ability to self-organize, enabling the formation of structures mimicking the structure of the triple helix characteristic of collagens, including the COL domain of type IV collagen. The method of circular dichroism was used in the research, allowing both the secondary and tertiary structure of peptides and proteins to be determined. This method can also be successfully used to observe the process of protein self-organization depending on the temperature or pH. […] A characteristic feature of triple helix collagens is the maximum at about 220 nm and the minimum at about 190–200 nm. Based on literature data, the CD spectrum corresponding to the triple helix characteristic of collagens as a function of temperature was simulated (Figure 9j). The main factors stabilizing the collagen triple helix are the hydrogen bonds between the hydrogen atom of the amino group and the oxygen atom of the carbonyl group. These are relatively weak bonds, and their stability depends, inter alia, on temperature. Therefore, the stability of the collagen triple helix changes with the change of this factor. Due to the fact that the studied collagen fragments can be potentially used in regenerative medicine, it was necessary to check the stability of the structure in the temperature range as close as possible to physiological conditions. Therefore, the tests were performed at 4 °C, 20 °C and 40 °C after incubation for 24 h. The incubation process was to enable the self-assembly to form structures that mimic the triple helix of collagen. […] In the spectra, the presence of a characteristic maximum at a wavelength of about 220 nm and a minimum at about 190–200 nm was observed. However, the most important fact is that these peptides formed stable three-dimensional structures even at 40 °C.
The CD spectra were recorded using a Jasco J-1500 instrument (Jasco, Cracow, Poland) and quartz cuvettes with 1 mm optical path lengths. The measurements were acquired in the range of 190–270 nm at temperatures of 4 °C, 20 °C and 40 °C by taking points every 5 nm, with a scan rate of 100 nm per min, an integration time of 1 s, and a bandwidth of 4 nm. The samples were prepared in MiliQ purity water with a final concentration of 0.1 mg/mL. Samples before CD measurements were incubated for 24 h. at 4 °C, 20 °C and 40 °C using a Lauda thermostat.

α1β1 integrin (ITGα1β1) = α1β1 integrin (ITGα1β1) (Homo sapiens, UniProt P05556+P56199); assay: MST determination of Kd for labeled α1β1 integrin and collagen IV fragments; type: binding
Sequence of α1β1 integrin (ITGα1β1) (P56199 29-1141 limits assumed): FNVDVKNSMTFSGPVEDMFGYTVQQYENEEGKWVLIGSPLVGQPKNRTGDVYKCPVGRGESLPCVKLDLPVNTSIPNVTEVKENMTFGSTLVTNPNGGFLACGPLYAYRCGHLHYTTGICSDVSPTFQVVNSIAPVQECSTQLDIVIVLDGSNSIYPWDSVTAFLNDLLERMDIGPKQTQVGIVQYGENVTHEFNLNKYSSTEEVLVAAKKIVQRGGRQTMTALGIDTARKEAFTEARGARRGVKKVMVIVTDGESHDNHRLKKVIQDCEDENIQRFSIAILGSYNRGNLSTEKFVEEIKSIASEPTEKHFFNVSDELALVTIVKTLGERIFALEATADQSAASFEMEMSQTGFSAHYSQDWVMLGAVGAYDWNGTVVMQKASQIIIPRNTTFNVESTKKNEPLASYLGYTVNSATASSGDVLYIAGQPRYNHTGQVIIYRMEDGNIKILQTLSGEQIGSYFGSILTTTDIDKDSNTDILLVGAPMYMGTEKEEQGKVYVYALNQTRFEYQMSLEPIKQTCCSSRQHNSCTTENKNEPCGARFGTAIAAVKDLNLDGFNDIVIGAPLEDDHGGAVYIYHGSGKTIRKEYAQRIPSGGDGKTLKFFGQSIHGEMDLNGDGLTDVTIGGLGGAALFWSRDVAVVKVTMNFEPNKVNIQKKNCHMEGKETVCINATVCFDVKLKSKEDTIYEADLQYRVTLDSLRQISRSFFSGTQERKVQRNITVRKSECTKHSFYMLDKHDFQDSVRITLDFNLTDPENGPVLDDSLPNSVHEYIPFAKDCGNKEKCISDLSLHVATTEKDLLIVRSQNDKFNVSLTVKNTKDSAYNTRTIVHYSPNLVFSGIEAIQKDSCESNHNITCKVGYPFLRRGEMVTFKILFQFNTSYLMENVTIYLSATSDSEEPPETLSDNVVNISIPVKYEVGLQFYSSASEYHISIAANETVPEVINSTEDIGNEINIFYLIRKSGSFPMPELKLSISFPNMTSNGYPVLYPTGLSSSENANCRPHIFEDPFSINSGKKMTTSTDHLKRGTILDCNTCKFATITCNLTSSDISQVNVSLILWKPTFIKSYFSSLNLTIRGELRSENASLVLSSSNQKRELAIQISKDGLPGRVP
Sequence of α1β1 integrin (ITGα1β1) (P05556 21-728 limits assumed): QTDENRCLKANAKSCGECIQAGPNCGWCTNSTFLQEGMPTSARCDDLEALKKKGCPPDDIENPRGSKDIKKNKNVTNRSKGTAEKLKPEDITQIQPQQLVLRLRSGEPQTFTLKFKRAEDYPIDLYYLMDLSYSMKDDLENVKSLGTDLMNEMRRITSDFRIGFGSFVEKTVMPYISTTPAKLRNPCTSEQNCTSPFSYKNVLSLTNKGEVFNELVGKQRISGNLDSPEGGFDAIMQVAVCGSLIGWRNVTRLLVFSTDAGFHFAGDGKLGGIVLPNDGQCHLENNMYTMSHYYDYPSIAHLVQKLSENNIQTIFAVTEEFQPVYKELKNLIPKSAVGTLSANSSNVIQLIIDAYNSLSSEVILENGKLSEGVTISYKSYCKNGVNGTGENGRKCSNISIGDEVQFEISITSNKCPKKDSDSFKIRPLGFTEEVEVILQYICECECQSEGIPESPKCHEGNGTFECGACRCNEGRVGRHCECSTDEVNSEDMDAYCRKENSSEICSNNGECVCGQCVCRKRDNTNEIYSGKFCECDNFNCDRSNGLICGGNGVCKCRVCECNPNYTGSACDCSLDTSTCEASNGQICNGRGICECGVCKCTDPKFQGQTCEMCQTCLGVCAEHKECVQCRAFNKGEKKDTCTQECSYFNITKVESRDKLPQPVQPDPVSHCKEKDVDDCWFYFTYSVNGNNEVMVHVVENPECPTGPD
Method: The tests were performed using the Microscale Thermophoresis (MST) technique [86]. […] For MST experiment His-tagged ITGα1β1 was labeled using a fluorescent dye, which enable a site-specific and stable noncovalent fluorescence labeling of polyhistidine-tagged proteins. The concentrations of labeled ITGα1β1 were kept constant at 25 nM, whereas the peptides were used as titration ligands with increasing concentrations.
The α1β1 integrin concentration was kept constant (25 nM), while the non-labeled binding partner collagen IV peptides were used at increasing concentrations as the titration ligand. The MST measurement was performed at 80% or 100% (for peptide 4) LED power and medium (40%) MST power. An MST-on time 4 s was used for analysis and a Kd (µM ± µM confidence) was derived for these interactions (n ≥ 3 independent measurements, error bars represent standard deviation).
• Preparation of Materials for MST Analysis • (1) ITGα1β1—a solution with a concentration of 9.3 µM was prepared. For this, 50 µL of sterile PBS (filtered through a 0.22 µm filter) was added to the protein. […] The fluorescent dye OG488 (ex = 498 nm, ex = 526 nm) provide an efficient method for site-specific and stable noncovalent fluorescence labeling of polyhistidine-tagged proteins. • (3) A 0.05% Tween20 solution in PBS (PBST) was prepared. • Testing the Affinity of the Dye to the Protein […]

Substance	structure of aggregates stained with Congo Red [1]	ability to self-organize into structures mimicking the triple helix (CD) [2]	Kd (α1β1 integrin (ITGα1β1); labeled His-tagged ITGα1β1 25 nM, 22 °C, MST-on time 4 s, Kd ± confidence)	ability to bind to ITGα1β1 (in words) (α1β1 integrin (ITGα1β1); labeled ITGα1β1 25 nM)	Ability to Mimic the Structure of the Collagen Helix [2]
^1453VGYTLVKHSQSE^1464 [Peptide 2.3]	fibrous structures	only at 4 °C			
^1661AGQLHTRVSR^1670 [Peptide 33]	fibrous structures				
^641PGQQGLPGSK^650 [Peptide 12]	fibrous structures	only at 4 °C			
^1520CHYARRNDKSYW^1531 [Peptide 2.4]	fibrous structures	only at 4 °C			
^781PGLKGVHGKP^790 [Peptide 16]	fibrous structures resembling amyloid structures	not found			
^1221PGLRGQKGDR^1230 [Peptide 28]	fibrous structures	only at 4 °C			
^471LKGIKGDSGF^480 [Peptide 9]	fibrous structures resembling amyloid structures	not found			
^81PGLLGPYGPK^90 [Peptide 3]	fibrous structures resembling amyloid structures	not found			
^1521HYARRNDKSY^1530 [Peptide 32]	fibrous structures resembling amyloid structures	not found			
^23EKSYGKPCGGQDC^35 [Peptide 2.1]	fibrous structures resembling amyloid structures	not found			
^951PVGIPSPRRP^960 [Peptide 22]	fibrous structures resembling amyloid structures	not found			
^711GFPGPRGEKG^720 [Peptide 14]	only amorphous structures	have the ability to self-organize to form structures that mimic the structure of the triple helix			
^961MSNLWLKGDK^970 [Peptide 23]	fibrous structures resembling amyloid structures	not found			
^41CFPEKGARGR^50 [Peptide 2]	only amorphous structures	have the ability to self-organize to form structures that mimic the structure of the triple helix			
^1101IGNIGFPGNK^1110 [Peptide 26]	only amorphous structures	have the ability to self-organize to form structures that mimic the structure of the triple helix			
^311GPPGQQGKKG^320 [Peptide 7]	fibrous structures	only at 4 °C			
^251GFPKGKKGSK^260 [Peptide 6]	only amorphous structures	have the ability to self-organize to form structures that mimic the structure of the triple helix			
^1451MRVGYTLVKH^1460 [Peptide 31]	fibrous structures resembling amyloid structures	not found			
^1211PGIGIGAPGK^1220 [Peptide 27]	fibrous structures resembling amyloid structures	not found			
^921LKGIPGSTGK^930 [Peptide 21]	fibrous structures resembling amyloid structures	not found			
^1001GAPGLPGIIK^1010 [Peptide 24]	fibrous structures resembling amyloid structures	not found			
^541KGKKGEPILS^550 [Peptide 11]	fibrous structures resembling amyloid structures	not found			
^1446MPGQSMRVGYTL^1457 [Peptide 2.2]	fibrous structures	only at 4 °C			
^1311KGMRGEPGFM^1320 [Peptide 29]	fibrous structures resembling amyloid structures	not found			
^671PGFPGPKGSR^680 [Peptide 13]	fibrous structures	only at 4 °C			
^821GIKGKSGLPG^830 [Peptide 17]	fibrous structures	only at 4 °C			
^891LSGPKGEKGS^900 [Peptide 20]	fibrous structures resembling amyloid structures	not found			
^841PGKKGTRGKK^850 [Peptide 18]	fibrous structures	only at 4 °C			
^21AGEKSYGKPC^30 [Peptide 1]	fibrous structures resembling amyloid structures	not found			
^721LPGFPGLPGK^730 [Peptide 15]	only amorphous structures	have the ability to self-organize to form structures that mimic the structure of the triple helix	no binding	no binding	+++
